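Cells were grown in 96-well plates and exposed to each compound for 48 hours at five concentrations; endpoints were interpolated linearly between bracketing concentrations, or set to the highest concentration if not reached. GI50 marks 50% less growth.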 Calls of active or inactive are those of the source. Cut-off read from the data, not from the text of the source: active = GI50 up to about 1.1 µM and inactive = higher.
Columns and labels:
Assay in all cases: NCI-60 cell line screen, 48 h
SF-268 = tested on: SF-268
786-0 = tested on: 786-0
SN12C = tested on: SN12C
TK-10 = tested on: TK-10
MCF7 = tested on: MCF7
HOP-62 = tested on: HOP-62
SF-295 = tested on: SF-295
UACC-62 = tested on: UACC-62
SNB-75 = tested on: SNB-75
A549 = tested on: A549
T47D = tested on: T47D
UO-31 = tested on: UO-31
SK-MEL-2 = tested on: SK-MEL-2
NCI-H460 = tested on: NCI-H460
COLO 205 = tested on: COLO 205
OVCAR-5 = tested on: OVCAR-5
NCI/ADR-RES = tested on: NCI/ADR-RES
HOP-92 = tested on: HOP-92
KM12 = tested on: KM12
ACHN = tested on: ACHN
MDA-MB-231 = tested on: MDA-MB-231
SF-539 = tested on: SF-539
Malme-3M = tested on: Malme-3M
IGROV-1 = tested on: IGROV-1
UACC-257 = tested on: UACC-257
HL-60 = tested on: HL-60
SNB-19 = tested on: SNB-19
NCI-H522 = tested on: NCI-H522
OVCAR-4 = tested on: OVCAR-4
SK-MEL-28 = tested on: SK-MEL-28
MDA-N = tested on: MDA-N
PC-3 = tested on: PC-3
SW-620 = tested on: SW-620
OVCAR-8 = tested on: OVCAR-8
SR = tested on: SR
M14 = tested on: M14
HCT-15 = tested on: HCT-15
CCRF-CEM = tested on: CCRF-CEM
Hs-578T = tested on: Hs-578T
RPMI-8226 = tested on: RPMI-8226
LOX IMVI = tested on: LOX IMVI
RXF 393 = tested on: RXF 393
NCI-H23 = tested on: NCI-H23
OVCAR-3 = tested on: OVCAR-3
DU-145 = tested on: DU-145
HT-29 = tested on: HT-29
MDA-MB-435 = tested on: MDA-MB-435
BT-549 = tested on: BT-549
SK-MEL-5 = tested on: SK-MEL-5
HCT-116 = tested on: HCT-116
CAKI-1 = tested on: CAKI-1
EKVX = tested on: EKVX
A498 = tested on: A498
MOLT-4 = tested on: MOLT-4
U-251 = tested on: U-251
SK-OV-3 = tested on: SK-OV-3
K562 = tested on: K562

In the case of `Oc1c(CN2CCN(c3ccccc3)CC2)cc(Br)c2cccnc12`, the GI50 (SF-268) is reported as 0.893 µM (active), the GI50 (786-0) is reported as 1.4 µM (inactive) and the GI50 (SN12C) is reported as 0.991 µM (active). The GI50 (TK-10) was 3.61 µM (inactive), the GI50 (MCF7) was 0.966 µM (active) and the GI50 (HOP-62) was 1.33 µM (inactive). The GI50 (SF-295) was 1.21 µM (inactive), the GI50 (UACC-62) was 1.01 µM (active) and the GI50 (SNB-75) was 3.78 µM (inactive). For the same compound, the GI50 (A549) was 1.43 µM (inactive), the GI50 (T47D) was 1.32 µM (inactive) and the GI50 (UO-31) was 0.393 µM (active). The GI50 (SK-MEL-2) was 2.17 µM (inactive), the GI50 (NCI-H460) was 0.244 µM (active) and the GI50 (COLO 205) was 29.6 µM (inactive). For the same compound, the GI50 (OVCAR-5) was 4.07 µM (inactive), the GI50 (NCI/ADR-RES) was 0.206 µM (active) and the GI50 (HOP-92) was 2.2 µM (inactive). The GI50 (KM12) was 1.56 µM (inactive), the GI50 (ACHN) was 0.621 µM (active) and the GI50 (MDA-MB-231) was 2.33 µM (inactive). The GI50 (SF-539) was 2.07 µM (inactive), the GI50 (Malme-3M) was 0.995 µM (active) and the GI50 (IGROV-1) was 0.834 µM (active). For the same compound, the GI50 (UACC-257) was 2.96 µM (inactive), the GI50 (HL-60) was 0.485 µM (active) and the GI50 (SNB-19) was 1.69 µM (inactive). For the same compound, the GI50 (NCI-H522) was 0.555 µM (active), the GI50 (OVCAR-4) was 1.7 µM (inactive) and the GI50 (SK-MEL-28) was 3.97 µM (inactive). The GI50 (MDA-N) was 0.855 µM (active), the GI50 (PC-3) was 4.22 µM (inactive) and the GI50 (SW-620) was 1.4 µM (inactive). The GI50 (OVCAR-8) was 0.721 µM (active), the GI50 (SR) was 0.284 µM (active) and the GI50 (M14) was 1.14 µM (inactive). The GI50 (HCT-15) was 0.135 µM, the GI50 (CCRF-CEM) was 0.271 µM (active) and the GI50 (Hs-578T) was 3.33 µM (inactive). For the same compound, the GI50 (RPMI-8226) was 0.361 µM (active), the GI50 (LOX IMVI) was 0.52 µM (active) and the GI50 (RXF 393) was 1.46 µM (inactive). The GI50 (NCI-H23) was 1.82 µM (inactive), the GI50 (OVCAR-3) was 0.423 µM (active) and the GI50 (DU-145) was 1.63 µM (inactive). The GI50 (HT-29) was 10.9 µM (inactive), the GI50 (MDA-MB-435) was 1.46 µM (inactive) and the GI50 (BT-549) was 7.52 µM (inactive). The GI50 (SK-MEL-5) was 0.805 µM (active), the GI50 (HCT-116) was 0.448 µM (active) and the GI50 (CAKI-1) was 1.21 µM (inactive). The GI50 (EKVX) was 2.62 µM (inactive), the GI50 (A498) was 7.46 µM (inactive) and the GI50 (MOLT-4) was 0.349 µM (active). For the same compound, the GI50 (U-251) was 0.671 µM (active) and the GI50 (SK-OV-3) was 3.21 µM (inactive).
With `O=C(CCc1ccc(O)cc1)NCCc1cccc(O)c1` the GI50 (SF-268) was > 50 µM (inactive), the GI50 (786-0) was > 50 µM (inactive) and the GI50 (SN12C) was > 50 µM (inactive). The GI50 (TK-10) was > 50 µM (inactive), the GI50 (MCF7) was > 50 µM (inactive) and the GI50 (HOP-62) was > 50 µM (inactive). For the same compound, the GI50 (SF-295) was > 50 µM (inactive), the GI50 (UACC-62) was > 50 µM (inactive) and the GI50 (SNB-75) was 0.005 µM (active). The GI50 (A549) was > 50 µM (inactive), the GI50 (T47D) was > 50 µM (inactive) and the GI50 (UO-31) was > 50 µM (inactive). The GI50 (SK-MEL-2) was > 50 µM (inactive), the GI50 (NCI-H460) was > 50 µM (inactive) and the GI50 (COLO 205) was > 50 µM (inactive). For the same compound, the GI50 (OVCAR-5) was > 50 µM (inactive), the GI50 (NCI/ADR-RES) was > 50 µM (inactive) and the GI50 (HOP-92) was > 50 µM (inactive). The GI50 (KM12) was > 50 µM (inactive), the GI50 (ACHN) was > 50 µM (inactive) and the GI50 (MDA-MB-231) was > 50 µM (inactive). The GI50 (SF-539) was > 50 µM (inactive), the GI50 (Malme-3M) was > 50 µM (inactive) and the GI50 (IGROV-1) was > 50 µM (inactive). The GI50 (UACC-257) was > 50 µM (inactive), the GI50 (HL-60) was > 50 µM (inactive) and the GI50 (SNB-19) was > 50 µM (inactive). The GI50 (K562) was > 50 µM (inactive), the GI50 (NCI-H522) was 20.2 µM (inactive) and the GI50 (OVCAR-4) was > 50 µM (inactive). The GI50 (SK-MEL-28) was > 50 µM (inactive), the GI50 (MDA-N) was > 50 µM (inactive) and the GI50 (PC-3) was > 50 µM (inactive). For the same compound, the GI50 (OVCAR-8) was > 50 µM (inactive), the GI50 (SR) was > 50 µM (inactive) and the GI50 (M14) was > 50 µM (inactive). For the same compound, the GI50 (HCT-15) was greater than 50 µM, the GI50 (CCRF-CEM) was > 50 µM (inactive) and the GI50 (Hs-578T) was > 50 µM (inactive). For the same compound, the GI50 (LOX IMVI) was > 50 µM (inactive), the GI50 (RXF 393) was > 50 µM (inactive) and the GI50 (NCI-H23) was > 50 µM (inactive). For the same compound, the GI50 (OVCAR-3) was > 50 µM (inactive), the GI50 (DU-145) was > 50 µM (inactive) and the GI50 (HT-29) was > 50 µM (inactive). For the same compound, the GI50 (MDA-MB-435) was > 50 µM (inactive), the GI50 (BT-549) was > 50 µM (inactive) and the GI50 (SK-MEL-5) was > 50 µM (inactive). For the same compound, the GI50 (HCT-116) was > 50 µM (inactive), the GI50 (CAKI-1) was > 50 µM (inactive) and the GI50 (EKVX) was > 50 µM (inactive). For the same compound, the GI50 (A498) was > 50 µM (inactive), the GI50 (MOLT-4) was > 50 µM (inactive) and the GI50 (U-251) was > 50 µM (inactive). The GI50 (SK-OV-3) was > 50 µM (inactive).
